The values that follow come from PubChem BioAssay (NCI).

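Five concentrations, 48 hours, 96-well plates. TGI: total growth inhibition.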 *1 amine or outer side, *2 acyl side, *3 side chain or, on linkers, in order; H or OH if unused. Where a SMILES comes first, the peptide text is derived from it. [ ]: non-standard residue; d: D form. X33 = C=CCC(O[*:1])C(=O)[*:2]; NMeV = CN[CH](C(=O)O)C(C)C; NMeA = CN[CH](C)C(=O)O; βAla = NCCC(=O)O

Test systems include 786-0 renal; A549 NSCLC; BT-549 breast; CCRF-CEM leukemia; M14 melanoma; MCF7 breast; MDA-MB-231 breast; NCI-H23 lung; NCI-H522 lung; OVCAR-3 ovarian; OVCAR-5 ovarian; PC-3 prostate; RXF 393 renal; SK-MEL-5 melanoma; SK-OV-3 ovarian; SR leukemia; UACC-257 melanoma; HCT-15 colon; LOX IMVI melanoma.
Common to all, as to test: growth of human tumour cells (NCI), 48 h

For `CC1=N[C@](C)(C2CC3C=CC2C3=O)COC1=O` (stereo partly drawn), the TGI in the experiment on 786-0 renal, in the experiment with A549 NSCLC, with BT-549 breast, with CCRF-CEM leukemia, in the experiment with M14 melanoma and in the experiment with MCF7 breast was over 100 µM throughout. Besides, the TGI in the experiment with MDA-MB-231 breast, in the experiment on NCI-H23 lung, in the experiment with NCI-H522 lung, in the experiment on OVCAR-3 ovarian, in the experiment with OVCAR-5 ovarian and in the experiment on PC-3 prostate was over 100 µM each time. The TGI in the experiment on RXF 393 renal, in the experiment with SK-MEL-5 melanoma, in the experiment on SK-OV-3 ovarian, in the experiment on SR leukemia and in the experiment on UACC-257 melanoma was over 100 µM in each case.

As to `COC(=O)CC(=O)Nc1sccc1S(=O)(=O)c1ccccc1`, the TGI in the experiment with 786-0 renal, in the experiment with A549 NSCLC, in the experiment with BT-549 breast, in the experiment with CCRF-CEM leukemia, in the experiment with HCT-15 colon and in the experiment with M14 melanoma was over 100 µM each time. The TGI in the experiment with MCF7 breast is over 100 µM; in the experiment with MDA-MB-231 breast, over 100 µM; with NCI-H23 lung, over 100 µM; in the experiment with NCI-H522 lung, over 100 µM; with OVCAR-3 ovarian, 43.5 µM; in the experiment with OVCAR-5 ovarian it was over 100 µM. In addition, the TGI in the experiment with PC-3 prostate, in the experiment on RXF 393 renal, in the experiment with SK-MEL-5 melanoma, in the experiment on SK-OV-3 ovarian, with SR leukemia and with UACC-257 melanoma was over 100 µM throughout.

For `O=C(CNC(=O)OCc1ccccc1)NCCCCC(NC(=O)OCc1ccccc1)C(=O)NC(CCCCNC(=O)CNC(=O)OCc1ccccc1)C(=O)OCc1ccccc1` (stereo not drawn), the TGI in the experiment on 786-0 renal, in the experiment on A549 NSCLC, in the experiment on BT-549 breast, in the experiment on CCRF-CEM leukemia, with HCT-15 colon and in the experiment on LOX IMVI melanoma was over 62.5 µM in each case. Moreover, the TGI in the experiment on M14 melanoma, in the experiment with MCF7 breast, in the experiment with MDA-MB-231 breast, in the experiment with NCI-H23 lung, in the experiment with NCI-H522 lung and in the experiment on OVCAR-3 ovarian was over 62.5 µM in each case. Moreover, the TGI with OVCAR-5 ovarian, with PC-3 prostate, with SK-MEL-5 melanoma, in the experiment on SR leukemia and with UACC-257 melanoma was over 62.5 µM throughout.

With `CC(C)(C)OC(=O)N(CCNS(=O)(=O)c1cccc2cnccc12)CCC(=O)ON1C(=O)CCC1=O`, the TGI in the experiment with 786-0 renal, in the experiment with A549 NSCLC, in the experiment with BT-549 breast, with HCT-15 colon, in the experiment with LOX IMVI melanoma and in the experiment with M14 melanoma was over 100 µM in each case. For the same molecule, the TGI with MCF7 breast, in the experiment on MDA-MB-231 breast, in the experiment with NCI-H23 lung, in the experiment on NCI-H522 lung, in the experiment with OVCAR-3 ovarian and with OVCAR-5 ovarian was over 100 µM throughout. The TGI in the experiment on PC-3 prostate, in the experiment on RXF 393 renal, in the experiment with SK-MEL-5 melanoma, in the experiment on SK-OV-3 ovarian, with SR leukemia and with UACC-257 melanoma was over 100 µM in each case.

Regarding `C/C(=N\NC(=S)Nc1ccc(C)cc1)c1nc2ncccc2[nH]1`, the TGI was 18.7 µM with 786-0 renal; 44.7 µM in the experiment on A549 NSCLC; 11.8 µM in the experiment on BT-549 breast; 11.5 µM in the experiment with CCRF-CEM leukemia; 19.4 µM in the experiment with HCT-15 colon; 8.29 µM in the experiment with LOX IMVI melanoma. The TGI with MCF7 breast was 13.5 µM; in the experiment on MDA-MB-231 breast, over 100 µM; with NCI-H23 lung, 19.8 µM; in the experiment with OVCAR-3 ovarian, 9.71 µM; in the experiment with OVCAR-5 ovarian, 18.6 µM; in the experiment on PC-3 prostate, 32.5 µM. Moreover, the TGI with SK-MEL-5 melanoma was 4.73 µM; in the experiment on SK-OV-3 ovarian, 58.3 µM; in the experiment with SR leukemia it was over 100 µM; in the experiment on UACC-257 melanoma, 9.48 µM.

Regarding `O=C(Cc1ccccc1)NNc1nc(NNC(=O)c2ccncc2)nc(Nc2cccc(Cl)c2)n1`, the TGI in the experiment with 786-0 renal, in the experiment with A549 NSCLC, with BT-549 breast, in the experiment on CCRF-CEM leukemia, with HCT-15 colon and in the experiment on LOX IMVI melanoma was over 10 µM in each case. For the same molecule, the TGI in the experiment on M14 melanoma, in the experiment with MCF7 breast, with MDA-MB-231 breast, with NCI-H23 lung, in the experiment with SK-MEL-5 melanoma and in the experiment with SK-OV-3 ovarian was over 10 µM throughout. The TGI in the experiment on SR leukemia and in the experiment with UACC-257 melanoma was over 10 µM each time.

Consider `CC12c3c4cc(Br)cc3Oc3cc(Br)cc(c31)Oc1cc(Br)cc(c12)O4`, for which the TGI was 44.4 µM in the experiment with 786-0 renal; over 100 µM with A549 NSCLC; 52.7 µM in the experiment with BT-549 breast; over 100 µM in the experiment on HCT-15 colon; 51.1 µM in the experiment with LOX IMVI melanoma; over 100 µM in the experiment on M14 melanoma. In addition, the TGI is over 100 µM with MCF7 breast; 59.3 µM with MDA-MB-231 breast; over 100 µM in the experiment with NCI-H23 lung; 28.2 µM with OVCAR-3 ovarian; over 100 µM in the experiment with OVCAR-5 ovarian; 55.3 µM in the experiment on PC-3 prostate. In addition, the TGI in the experiment with SK-MEL-5 melanoma was 84.5 µM; in the experiment with SK-OV-3 ovarian, over 100 µM; in the experiment on SR leukemia, over 100 µM; in the experiment on UACC-257 melanoma, over 100 µM.

As for `C=CCC1OC(=O)CCNC(=O)C(C)N(C)C(=O)C(C(C)C)N(C)C(=O)C(C(C)CC)NC(=O)C2CCCN2C1=O` (stereo not drawn) (cyclo([X33]PI[NMeV][NMeA][βAla]); configuration not given here), the TGI in the experiment on 786-0 renal is over 100 µM; in the experiment with A549 NSCLC, over 100 µM; in the experiment on BT-549 breast, over 100 µM; in the experiment with CCRF-CEM leukemia it was over 100 µM; in the experiment on HCT-15 colon it was over 100 µM; in the experiment on LOX IMVI melanoma, 5.17 µM. For the same molecule, the TGI was over 100 µM in the experiment on M14 melanoma; over 100 µM in the experiment with MCF7 breast; 62.9 µM with MDA-MB-231 breast; over 100 µM in the experiment with NCI-H23 lung; over 100 µM with NCI-H522 lung; over 100 µM with OVCAR-3 ovarian. Also, the TGI in the experiment on OVCAR-5 ovarian was over 100 µM; in the experiment with PC-3 prostate, over 100 µM; with SK-MEL-5 melanoma it was 6.12 µM; in the experiment with SR leukemia, over 100 µM; in the experiment on UACC-257 melanoma, 71.6 µM.
